Test results as given in PubChem BioAssay AID1963835 (Molecular Pharmacology Branch, DTP, NCI, 2024).

Test system: 699152-130-R-J1-PDC complex spheroid viability
Assay: Anticancer human tumor 699152-130-R-J1-PDC patient-derived pancreatic carcinoma cell line growth inhibition [POLQ]
Conditions: for IC50: curve of first compound; for viability, T/C: stronger effect = lower value
Procedure, shortened: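 Three-cell-type spheroids modelling solid tumor plus stroma served as the readout system; POL inhibitors were tested individually and in combination, concentration ranges set by clinical Cmax where known.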

[1] = second compound 0.0316 µM, first compound 0.0316 µM
[2] = second compound 0.0316 µM, first compound 0.1 µM
[3] = second compound 0.0316 µM, first compound 0.316 µM
[4] = second compound 0.0316 µM, first compound 1 µM
[5] = second compound 0.1 µM, first compound 0.0316 µM
[6] = second compound 0.1 µM, first compound 0.1 µM
[7] = second compound 0.1 µM, first compound 0.316 µM
[8] = second compound 0.1 µM, first compound 1 µM
[9] = second compound 0.316 µM, first compound 0.0316 µM
[10] = second compound 0.316 µM, first compound 0.1 µM
[11] = second compound 0.316 µM, first compound 0.316 µM
[12] = second compound 0.316 µM, first compound 1 µM
[13] = second compound 1 µM, first compound 0.0316 µM
[14] = second compound 1 µM, first compound 0.1 µM
[15] = second compound 1 µM, first compound 0.316 µM
[16] = second compound 1 µM, first compound 1 µM
[17] = second compound 3.16 µM, first compound 0.0316 µM
[18] = second compound 3.16 µM, first compound 0.1 µM
[19] = second compound 3.16 µM, first compound 0.316 µM
[20] = second compound 3.16 µM, first compound 1 µM
[21] = second compound 10 µM, first compound 0.0316 µM
[22] = second compound 10 µM, first compound 0.1 µM
[23] = second compound 10 µM, first compound 0.316 µM
[24] = second compound 10 µM, first compound 1 µM
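Further: spheroids exposed to agents for 7 days before viability reading.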
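Wherever viability, T/C is given: percent of DMSO vehicle control viability so 100% = vehicle and 0% = no viable signal.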

## Nc1ccn(C2OC(CO)C(O)C2(F)F)c(=O)n1 (centres undefined) + Cc1cccc(N(C)C(=O)C2C(O)CCN2c2nc(C)cc(C(F)(F)F)c2C#N)c1
Second compound 0.0316 µM
  IC50: 958 nM
Second compound 0.1 µM
  IC50: 408 nM
Second compound 0.316 µM
  IC50: 468 nM
Second compound 1 µM
  IC50: 1240 nM
Second compound 3.16 µM
  IC50: 2050 nM
Second compound 10 µM
  IC50: 3290 nM
[1]
  viability, T/C: 70.1%
[2]
  viability, T/C: 57%
[3]
  viability, T/C: 53.7%
[4]
  viability, T/C: 52.5%
Second compound 0.0316 µM, first compound 3.16 µM
  viability, T/C: 48%
Second compound 0.0316 µM, first compound 10 µM
  viability, T/C: 39%
[5]
  viability, T/C: 75%
[6]
  viability, T/C: 58.9%
[7]
  viability, T/C: 50.3%
[8]
  viability, T/C: 48.8%
Second compound 0.1 µM, first compound 3.16 µM
  viability, T/C: 45%
Second compound 0.1 µM, first compound 10 µM
  viability, T/C: 44.7%
[9]
  viability, T/C: 75%
[10]
  viability, T/C: 62.3%
[11]
  viability, T/C: 49.6%
[12]
  viability, T/C: 44.6%
Second compound 0.316 µM, first compound 3.16 µM
  viability, T/C: 51.6%
Second compound 0.316 µM, first compound 10 µM
  viability, T/C: 37.9%
[13]
  viability, T/C: 74%
[14]
  viability, T/C: 55.3%
[15]
  viability, T/C: 60.9%
[16]
  viability, T/C: 52.6%
Second compound 1 µM, first compound 3.16 µM
  viability, T/C: 44.8%
Second compound 1 µM, first compound 10 µM
  viability, T/C: 42.1%
[17]
  viability, T/C: 72.9%
[18]
  viability, T/C: 63.3%
[19]
  viability, T/C: 57.9%
[20]
  viability, T/C: 55%
Second compound 3.16 µM, first compound 3.16 µM
  viability, T/C: 45.6%
Second compound 3.16 µM, first compound 10 µM
  viability, T/C: 46.5%
[21]
  viability, T/C: 76.4%
[22]
  viability, T/C: 63.5%
[23]
  viability, T/C: 56.6%
[24]
  viability, T/C: 59.5%
Second compound 10 µM, first compound 3.16 µM
  viability, T/C: 53.6%
Second compound 10 µM, first compound 10 µM
  viability, T/C: 42.6%

## C=CCn1c(=O)c2cnc(Nc3ccc(N4CCN(C)CC4)cc3)nc2n1-c1cccc(C(C)(C)O)n1 + Nc1ccc(C#CCN(C(=O)Cc2ncc(C(F)(F)F)cc2C(F)(F)F)c2ccc(F)cc2)nn1
Second compound 0.0316 µM
  IC50: > 1000 nM
Second compound 0.1 µM
  IC50: > 1000 nM
Second compound 0.316 µM
  IC50: > 1000 nM
Second compound 1 µM
  IC50: > 1000 nM
Second compound 3.16 µM
  IC50: > 1000 nM
Second compound 10 µM
  IC50: > 1000 nM
Second compound 0.0316 µM, first compound 0.00316 µM
  viability, T/C: 94.2%
Second compound 0.0316 µM, first compound 0.01 µM
  viability, T/C: 100%
[1]
  viability, T/C: 103%
[2]
  viability, T/C: 93.2%
[3]
  viability, T/C: 96.1%
[4]
  viability, T/C: 78.2%
Second compound 0.1 µM, first compound 0.00316 µM
  viability, T/C: 105%
Second compound 0.1 µM, first compound 0.01 µM
  viability, T/C: 98%
[5]
  viability, T/C: 98.1%
[6]
  viability, T/C: 99.1%
[7]
  viability, T/C: 89%
[8]
  viability, T/C: 68.8%
Second compound 0.316 µM, first compound 0.00316 µM
  viability, T/C: 104%
Second compound 0.316 µM, first compound 0.01 µM
  viability, T/C: 113%
[9]
  viability, T/C: 108%
[10]
  viability, T/C: 106%
[11]
  viability, T/C: 91%
[12]
  viability, T/C: 71.9%
Second compound 1 µM, first compound 0.00316 µM
  viability, T/C: 97.9%
Second compound 1 µM, first compound 0.01 µM
  viability, T/C: 94.7%
[13]
  viability, T/C: 98.5%
[14]
  viability, T/C: 105%
[15]
  viability, T/C: 87.3%
[16]
  viability, T/C: 74.7%
Second compound 3.16 µM, first compound 0.00316 µM
  viability, T/C: 107%
Second compound 3.16 µM, first compound 0.01 µM
  viability, T/C: 115%
[17]
  viability, T/C: 100%
[18]
  viability, T/C: 112%
[19]
  viability, T/C: 101%
[20]
  viability, T/C: 82.8%
Second compound 10 µM, first compound 0.00316 µM
  viability, T/C: 122%
Second compound 10 µM, first compound 0.01 µM
  viability, T/C: 126%
[21]
  viability, T/C: 109%
[22]
  viability, T/C: 104%
[23]
  viability, T/C: 104%
[24]
  viability, T/C: 81.7%
